Measured values: patent US6011070A, “Slow-onset, long-lasting dopamine reuptake blockers” (priority 1997, dated 2000)
“Also recorded” adds a separate entry of the source. Where two headings read alike, the source gives them in different places.

Legend:
male Swiss-Webster mice [1] = assay: Dose response study of induced locomotor stimulation (Digiscan), 1 h session (Example 2); format: in vivo, Swiss-Webster mice (Hsd:ND4); settings: IP; for Maximal Effect Relative to Cocaine / ED50: locomotor activity; for ED50: Mus musculus, 30-60 min period
Experimental: A dose response study of induced locomotor stimulation was conducted according to the following procedure. The study was conducted using a 16 or 32 Digiscan locomotor activity testing chambers (40.5×40.5×30.5 cm) housed in sets of two, within sound-attenuating chambers. A panel of infrared beams (16 beams) and corresponding photodetectors were located in the horizontal direction along the sides of each activity chamber. A 15-W incandescent light above each chamber provided dim illumination. Fans provided an 80-dB ambient noise level within the chamber. Separate groups of 8 non-habituated male Swiss-Webster mice (Hsd:ND4, aged 2-3 months) were injected via the intraperitoneal (IP) route with either vehicle (deionized water for Compounds 1-4, carboxymethylcellulose for Compound 6 or methyl cellulose for Compound 7)) or test compound (1, 2.5, 5, 10, 25 or 50 mg/kg for Compound 3; 1, 3, 10 and 30 mg/kg for Compounds 1, 2 and 4; 3, 10, 30 or 100 mg/kg for Compound 6; and 1, 3, 10, 30 and 100 mg/kg for Compound 7). Compounds 1-4 were injected immediately prior to locomotor activity testing. […] In all studies, horizontal activity (interruption of photocell beams) was measured for 1 hour within 10 minute periods. Testing was conducted with one mouse per activity chamber.
FIGS. 1, 3, 5 and 7 show average horizontal activity counts/10 minutes as a function of time, immediately following injection of Compound 1, Compound 2, Compound 3 and Compound 4, respectively. FIGS. 13 and 15 show average horizontal activity counts/10 minutes as a function of time, beginning twenty minutes following injection of Compound 6 and Compound 7, respectively. The period 30-60 minutes was selected for analysis of dose-response data. Using TableCurve 2D v2.03 software (Jandel Scientific), the mean average horizontal activity counts/10 minutes for this period were fit to a 3-parameter logistic peak function of log10 dose (with the constant set to 1989, the mean of the vehicle-treated group), and the maximum effect estimated from the resulting curve. […] FIGS. 2, 4, 6, 8, 14 and 16 show average horizontal activity counts/10 minutes over 30 minutes versus the amount administered of Compound 1, Compound 2, Compound 3, Compound 4, Compound 6 and Compound 7, respectively.

[2] = tested on: cocaine-induced stimulation; assay: Interaction study: block of cocaine-induced locomotor stimulation (20 mg/kg cocaine IP) (Example 3); format: in vivo, Swiss-Webster mice; settings: for ED50: Mus musculus, ip, read-out: AD50 (dose attenuating cocaine-induced stimulation by 50%)
Experimental: This interaction study was conducted using 16 Digiscan locomotor activity testing chambers as described in Example 2. […] When testing the effects of Compounds 6 and 7, mice were placed in the Digiscan apparatus twenty minutes after the injection of the test compound or vehicle.
FIGS. 9, 17 and 19 show average horizontal activity counts for the different treatment groups as a function of time. […] FIGS. 10, 18 and 20 show average horizontal activity counts/10 min for different treatment groups as a function of dose.
A one-way analysis of variance conducted on log10 horizontal activity counts for the selected time period indicated a significant overall effect for the treatment groups; F(4,35)=[…] for Compound 2; F(5,42)=[…] for Compound 6; and F((5,42)=8.96 p<0.5). […] All ps<0.05 are denoted in FIGS. 10, 18 and 20 with an asterisk.

male Swiss-Webster mice [3] = assay: Time course study of locomotor stimulation over 8 hours (Example 6); format: in vivo, Swiss-Webster mice (Hsd:ND4); settings: for Maximum effect (horizontal activity) / Dose of maximum effect: logistic peak fit; for ED50: Mus musculus, ip, read-out: ED50 (dose producing one half maximal stimulant activity)
Experimental: A dose response study of induced locomotor stimulation was conducted according to the following procedure. The study was conducted using 16 Digiscan locomotor activity testing chambers (40.5×40.5×30.5 cm) housed in sets of two, within sound-attenuating chambers. A panel of infrared beams (16 beams) and corresponding photodetectors were located in the horizontal direction along the sides of each activity chamber. A 7.5-W incandescent light above each chamber provided dim illumination. Fans provided an 80-dB ambient noise level within the chamber. Separate groups of 8 non-habituated male Swiss-Webster mice (Hsd:ND4, aged 2-3 months) were injected via the intraperitoneal (IP) route with either vehicle (0.9% saline) or test compound (5, 10, 20 or 40 mg/kg), immediately prior to locomotor activity testing. In all studies, horizontal activity (interruption of photocell beams) was measured for 8 hours within 10 minute periods, beginning at […]) two hours after lights on). Testing was conducted with one mouse per activity chamber.
Stimulant effects of 10, 20 and 40 mg/kg occurred within 10 minutes following injection and lasted up to 3 hours. […] Using TableCurve 2D v2.03 software (Jandel Scientific), the mean average horizontal activity counts for this 30-min period were fit to a 3-parameter logistic peak function of log10 dose (with the constant set to 3172, the mean of the saline-treated group), and the maximum was estimated from the resulting curve (maximum=6059 counts/10 min at 18.3 mg/kg).
Separate groups of eight mice were injected with either vehicle (deionized water) or Compound 2 (1, 3, 10 pr 30 mg/kg) immediately prior to locomotor activity testing.
Stimulant effects occurred within 40 to 70 minutes following injection and lasted 4 to ≥7 hours. The time period 280-310 min was selected for analysis of dose-response data because this was the time period in which maximal stimulant effects first appeared as a function of dose. Using TableCurve 2D v2.03 software (Jandel Scientific), the mean average horizontal activity counts/10 min for this period were fit to a 3-parameter logistic peak function of log10 dose (with the constant set to 399, the mean of the vehicle-treated group), and the maximum effect estimated from the resulting curve (maximum=4581 counts/10 min at 12.9 mg/kg).

squirrel monkeys = assay: Locomotor response in primates (Example 5); format: in vivo
[4] = read-out: ED50 (dose producing 1/2 maximal stimulant activity)

CCN(C)C1CC(c2ccc(Cl)c(Cl)c2)c2ccccc21 (centres unmarked) [Compound 3]
Maximal Effect Relative to Cocaine (male Swiss-Webster mice [1]): 0.93 | ED50 (male Swiss-Webster mice [1]; [4]): 10.8 mg/kg

CN(C1CC(c2ccc(Cl)c(Cl)c2)c2ccccc21)C(C)(C)C (centres unmarked) [Compound 7]
Effect on cocaine-induced locomotor stimulation ([2]; 20 mg/kg cocaine IP): antagonized the stimulant effect of cocaine; also recorded: block cocaine induced locomotor activity | ED50 [2]: 42.5 mg/kg | Effect on locomotor activity (male Swiss-Webster mice [1]): inhibited locomotor activity | ED50 (male Swiss-Webster mice [1]; read-out: ID50 (dose producing 1/2 maximal inhibitory activity)): 184 mg/kg

CCNC1CC(c2ccc(Cl)c(Cl)c2)c2ccccc21 (centres unmarked) [Compound 4]
Maximal Effect Relative to Cocaine (male Swiss-Webster mice [1]): 1.07 | ED50 (male Swiss-Webster mice [1]; [4]): 3.9 mg/kg

CCCN(C)C1CC(c2ccc(Cl)c(Cl)c2)c2ccccc21 (centres unmarked) [Compound 2]
Effect on cocaine-induced locomotor stimulation ([2]; 20 mg/kg cocaine IP): antagonized the stimulant effect of cocaine; also recorded: block cocaine induced locomotor activity | Dose with significant difference against the cocaine group (planned comparisons) ([2]; 20 mg/kg cocaine IP, 0-30 min, p<0.05): 30 mg/kg | ED50 [2]: 13.8 mg/kg | Maximal Effect Relative to Cocaine (male Swiss-Webster mice [1]): 0.51 | ED50 (male Swiss-Webster mice [1]; [4]): 5.65 mg/kg | Period of maximal stimulant effects (male Swiss-Webster mice [3]; Compound 2): 280 to 310 min | Duration of stimulant effects (male Swiss-Webster mice [3]; Compound 2, 3 to 30 mg/kg): UP TO SEVEN | Maximal effect/cocaine maximal effect ratio (ME/CME) (male Swiss-Webster mice [3]; Compound 2, 280-310 min): 1.4 | Maximum effect (horizontal activity) (male Swiss-Webster mice [3]; Compound 2, 280-310 min, at 12.9 mg/kg): 4581 counts/10 min | Dose of maximum effect (male Swiss-Webster mice [3]; Compound 2, 280-310 min): 12.9 mg/kg | Stimulation of locomotor activity (male Swiss-Webster mice [3]; Compound 2, doses from 3 to 30 mg/kg): time-dependent stimulation of locomotor activity | ED50 (male Swiss-Webster mice [3]; 310 min, Compound 2, 280-310 min, 1 to 10 mg/kg ascending portion): 3.3 mg/kg

CC(C)(C)NC1CC(c2ccc(Cl)c(Cl)c2)c2ccccc21 (centres unmarked) [Compound 6]
Effect on cocaine-induced locomotor stimulation ([2]; 20 mg/kg cocaine IP): antagonized the stimulant effect of cocaine | ED50 [2]: 23.6 mg/kg | ED50 (male Swiss-Webster mice [1]; [4]): 506 mg/kg

CNC1CC(c2ccc(Cl)c(Cl)c2)c2ccccc21 (centres unmarked) [Compound 5]
Duration of stimulated locomotor activity / increased response rate (squirrel monkeys; 0.3 mg/kg Compound 5): two to four | Number of Responses/Second (squirrel monkeys; 0.3 mg/kg Compound 5, Day 1, Monkey 1 (control 0.74)): 1.29 responses/second | Number of Responses/Second (squirrel monkeys; 0.3 mg/kg Compound 5, Day 1, Monkey 2 (control 0.72)): 0.87 responses/second | Number of Responses/Second (squirrel monkeys; 0.3 mg/kg Compound 5, Day 1, Monkey 3 (control 0.92)): 1.11 responses/second | Number of Responses/Second (squirrel monkeys; 0.3 mg/kg Compound 5, Day 2, Monkey 1 (control 0.74)): 0.99 responses/second | Number of Responses/Second (squirrel monkeys; 0.3 mg/kg Compound 5, Day 2, Monkey 2 (control 0.72)): 1.18 responses/second | Number of Responses/Second (squirrel monkeys; 0.3 mg/kg Compound 5, Day 2, Monkey 3 (control 0.92)): 1.28 responses/second | Number of Responses/Second (squirrel monkeys; 0.3 mg/kg Compound 5, Day 3, Monkey 1 (control 0.74)): 0.75 responses/second | Number of Responses/Second (squirrel monkeys; 0.3 mg/kg Compound 5, Day 3, Monkey 2 (control 0.72)): 0.88 responses/second | Number of Responses/Second (squirrel monkeys; 0.3 mg/kg Compound 5, Day 3, Monkey 3 (control 0.92)): 1.13 responses/second | Number of Responses/Second (squirrel monkeys; 0.3 mg/kg Compound 5, Day 4, Monkey 1 (control 0.74)): 0.79 responses/second | Number of Responses/Second (squirrel monkeys; 0.3 mg/kg Compound 5, Day 4, Monkey 2 (control 0.72)): 0.74 responses/second | Number of Responses/Second (squirrel monkeys; 0.3 mg/kg Compound 5, Day 4, Monkey 3 (control 0.92)): 1.01 responses/second

COC(=O)[C@H]1[C@@H](OC(=O)c2ccccc2)C[C@@H]2CC[C@H]1N2C [Cocaine, reference compound]
Control rate of responding maintained by cocaine (drug component) (male rhesus monkeys; 0.0032 mg/kg/inj cocaine, monkey 89B013): 0.51 responses/sec | Control rate of responding maintained by cocaine (drug component) (male rhesus monkeys; 0.0032 mg/kg/inj cocaine, monkey 89B056): 0.79 responses/sec | Control rate of responding maintained by cocaine (drug component) (male rhesus monkeys; 0.0032 mg/kg/inj cocaine, monkey J3A): 0.57 responses/sec | Control rate of responding maintained by cocaine (drug component) (male rhesus monkeys; 0.01 mg/kg/inj cocaine, monkey WH8): 0.45 responses/sec | Unit dose of cocaine maintaining maximal rates of self-administration (male rhesus monkeys; control conditions, monkey WH8): 0.01 mg/kg/inj | Unit dose of cocaine maintaining maximal rates of self-administration (male rhesus monkeys; control conditions, monkeys 89B056 and J3A): 0.0032 mg/kg/inj | Shape of dose-effect curve for cocaine self-administration (male rhesus monkeys; control conditions, no pretreatment): inverted-U shape | ED50 (male Swiss-Webster mice [3]; 0.5 h): 8.8 mg/kg | Duration of stimulant effects (male Swiss-Webster mice [3]; cocaine 10, 20 and 40 mg/kg IP): up to 3 hours | Onset of stimulant effects following injection (male Swiss-Webster mice [3]; cocaine 10, 20 and 40 mg/kg IP): ≤ 10 min | Maximum effect (horizontal activity) (male Swiss-Webster mice [3]; cocaine, 0-30 min, at 18.3 mg/kg): 6059 counts/10 min | Dose of maximum effect (male Swiss-Webster mice [3]; cocaine, 0-30 min): 18.3 mg/kg | Stimulation of locomotor activity (male Swiss-Webster mice [3]; cocaine, doses from 10 to 40 mg/kg IP): time-dependent stimulation of locomotor activity | Period of maximal stimulant effects (male Swiss-Webster mice [3]; first minutes following 20 mg/kg cocaine): ≤ 30 min
